From PubChem BioAssay (NCI)
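Assay format: 96-well plates, 48-hour exposure. GI50 marks 50% less growth. At the TGI there is no net growth.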

Legend:
Experiment in all cases: NCI tumour cell line growth inhibition, 48 h
786-0 renal = system: 786-0 renal
A498 renal = system: A498 renal
A549 NSCLC = system: A549 NSCLC
ACHN renal = system: ACHN renal
BT-549 breast = system: BT-549 breast
CAKI-1 renal = system: CAKI-1 renal
CCRF-CEM leukemia = system: CCRF-CEM leukemia
COLO 205 colon = system: COLO 205 colon
DU-145 prostate = system: DU-145 prostate
EKVX NSCLC = system: EKVX NSCLC
HCC-2998 colon = system: HCC-2998 colon
HCT-116 colon = system: HCT-116 colon
HCT-15 colon = system: HCT-15 colon
HL-60(TB) leukemia = system: HL-60(TB) leukemia
HOP-62 NSCLC = system: HOP-62 NSCLC
HOP-92 NSCLC = system: HOP-92 NSCLC
HS 578T breast = system: HS 578T breast
HT29 colon = system: HT29 colon
IGROV1 ovarian = system: IGROV1 ovarian
K-562 leukemia = system: K-562 leukemia
KM12 colon = system: KM12 colon
LOX IMVI melanoma = system: LOX IMVI melanoma
M14 melanoma = system: M14 melanoma
MALME-3M melanoma = system: MALME-3M melanoma
MCF7 breast = system: MCF7 breast
MDA-MB-231 breast = system: MDA-MB-231 breast
MDA-MB-435 = system: MDA-MB-435
MDA-MB-468 breast = system: MDA-MB-468 breast
MOLT-4 leukemia = system: MOLT-4 leukemia
NCI-H226 lung = system: NCI-H226 lung

COC(=O)c1c(C(=O)OC)c2n(c1C)[C@@H]([C@@H](C)[C@H]1CC[C@H]3[C@@H]4CCC5=CC(=O)CC[C@]5(C)[C@H]4CC[C@]13C)SC2
GI50 (786-0 renal): 11.3 µM
TGI (786-0 renal): > 100 µM
GI50 (A498 renal): 17.1 µM
TGI (A498 renal): > 100 µM
GI50 (A549 NSCLC): 4.29 µM
TGI (A549 NSCLC): > 100 µM
GI50 (ACHN renal): 3.36 µM
TGI (ACHN renal): > 100 µM
GI50 (BT-549 breast): 1800 nM
TGI (BT-549 breast): 4.99 µM
GI50 (CAKI-1 renal): 3.93 µM
TGI (CAKI-1 renal): > 100 µM
GI50 (CCRF-CEM leukemia): 3.41 µM
TGI (CCRF-CEM leukemia): > 100 µM
GI50 (COLO 205 colon): 4.94 µM
TGI (COLO 205 colon): > 100 µM
GI50 (DU-145 prostate): 9.83 µM
TGI (DU-145 prostate): > 100 µM
GI50 (EKVX NSCLC): 2340 nM
TGI (EKVX NSCLC): > 100 µM
GI50 (HCC-2998 colon): 6.47 µM
TGI (HCC-2998 colon): > 100 µM
GI50 (HCT-116 colon): 3000 nM
TGI (HCT-116 colon): > 100 µM
GI50 (HCT-15 colon): 3.69 µM
TGI (HCT-15 colon): > 100 µM
GI50 (HL-60(TB) leukemia): 2340 nM
TGI (HL-60(TB) leukemia): 14 µM
GI50 (HOP-62 NSCLC): 24.3 µM
TGI (HOP-62 NSCLC): > 100 µM
GI50 (HOP-92 NSCLC): 6.99 µM
TGI (HOP-92 NSCLC): 54.4 µM
GI50 (HS 578T breast): 8.22 µM
TGI (HS 578T breast): > 100 µM
GI50 (HT29 colon): 3.75 µM
TGI (HT29 colon): > 100 µM
GI50 (IGROV1 ovarian): 18.7 µM
TGI (IGROV1 ovarian): > 100 µM
GI50 (K-562 leukemia): 908 nM
TGI (K-562 leukemia): > 100 µM
GI50 (KM12 colon): 4.17 µM
TGI (KM12 colon): > 100 µM
GI50 (LOX IMVI melanoma): 3.86 µM
TGI (LOX IMVI melanoma): > 100 µM
GI50 (M14 melanoma): 4.81 µM
TGI (M14 melanoma): > 100 µM
GI50 (MALME-3M melanoma): 4.44 µM
TGI (MALME-3M melanoma): 72.9 µM
GI50 (MCF7 breast): 2600 nM
TGI (MCF7 breast): > 100 µM
GI50 (MDA-MB-231 breast): 9.73 µM
TGI (MDA-MB-231 breast): > 100 µM
GI50 (MDA-MB-435): 3.25 µM
TGI (MDA-MB-435): > 100 µM
GI50 (MDA-MB-468 breast): 1930 nM
TGI (MDA-MB-468 breast): 16.6 µM
GI50 (MOLT-4 leukemia): 2020 nM
TGI (MOLT-4 leukemia): 6.34 µM
GI50 (NCI-H226 lung): 2580 nM
